System: EpidermFT™ Skin Model (EFT-400) full thickness skin cultures
Assay: Affymetrix GeneChip HG U133 Plus 2.0 microarray global gene expression, agent-exposed vs untreated skin cultures
Format: cell-based, human
Details: 24 hr; for Direction / Fold change: Salicin 0.5%
[1] = 210424_s_at GOLGA8A /// GOLGA8B

OCc1ccccc1O[C@@H]1O[C@H](CO)[C@@H](O)[C@H](O)[C@H]1O [Salicin, 2-(Hydroxymethyl)phenyl β-D-glucospyranoside]
Fold change SPTLC2 (203128_at) (0.5% vs untreated, down): 3.78
Fold change SPTLC2 (225095_at) (0.5% vs untreated, down): 3.474
Fold change ST14 (216905_s_at) (0.5% vs untreated, down): 3.604
Fold change STARD5 (213820_s_at) (0.5% vs untreated, down): 3.436
Fold change STON2 (227461_at) (0.5% vs untreated, down): 3.288
Fold change STOX2 (231969_at) (0.5% vs untreated, down): 3.5
Fold change STYK1 (220030_at) (0.5% vs untreated, down): 3.584
Fold change SYK (207540_s_at) (0.5% vs untreated, down): 3.163
Fold change SYNE2 (202761_s_at) (0.5% vs untreated, down): 3.62
Fold change SYTL1 (227134_at) (0.5% vs untreated, down): 3.294
Fold change TACC2 (211382_s_at) (0.5% vs untreated, down): 3.335
Fold change TGFA (205015_s_at) (0.5% vs untreated, down): 3.134
Fold change TGM3 (206004_at) (0.5% vs untreated, down): 3.783
Fold change THBD (203887_s_at) (0.5% vs untreated, down): 3.137
Fold change TIAM1 (206409_at) (0.5% vs untreated, down): 3.792
Fold change TM7SF3 (217974_at) (0.5% vs untreated, down): 3.241
Fold change TMEM54 (225536_at) (0.5% vs untreated, down): 3.354
Fold change TMEM184A (1558281_a_at) (0.5% vs untreated, down): 3.052
Fold change TPD52L1 (203786_s_at) (0.5% vs untreated, down): 3.196
Fold change TRIM7 (223694_at) (0.5% vs untreated, down): 3.302
Fold change TRIM7 (239694_at) (0.5% vs untreated, down): 3.174
Fold change TRIM14 (203147_s_at) (0.5% vs untreated, down): 3.14
Fold change TRIM14 (203148_s_at) (0.5% vs untreated, down): 3.658
Fold change TRIM25 (224806_at) (0.5% vs untreated, down): 3.869
Fold change TST (209605_at) (0.5% vs untreated, down): 3.038
Fold change UBL3 (201534_s_at) (0.5% vs untreated, down): 3.354
Fold change UGT1A1 /// UGT1A10 /// UGT1A4 /// UGT1A6 /// UGT1A8 /// UGT1A9 (207126_x_at) (0.5% vs untreated, down): 3.18
Fold change UPK1B (210065_s_at) (0.5% vs untreated, down): 3.412
Fold change USP2 (229337_at) (0.5% vs untreated, down): 3.391
Fold change USP6NL (238164_at) (0.5% vs untreated, down): 3.19
Fold change VAMP8 (202546_at) (0.5% vs untreated, down): 3.922
Fold change VWA5A (210102_at) (0.5% vs untreated, down): 3.897
Fold change WNT3 (229103_at) (0.5% vs untreated, down): 3.218
Fold change XG (1554062_at) (0.5% vs untreated, down): 3.378
Fold change ZBTB7C (227782_at) (0.5% vs untreated, down): 3.288
Fold change ZNF91 (206059_at) (0.5% vs untreated, down): 3.205
Direction (63825_at ABHD2): up
Fold change (63825_at ABHD2): 2.157
Direction (201467_s_at NQO1): up
Fold change (201467_s_at NQO1): 2.122
Direction (201468_s_at NQO1): up
Fold change (201468_s_at NQO1): 2.093
Direction (202724_s_at FOXO1): up
Fold change (202724_s_at FOXO1): 2.098
Direction (202952_s_at ADAM12): up
Fold change (202952_s_at ADAM12): 2.155
Direction (203066_at GALNAC4S-6ST): up
Fold change (203066_at GALNAC4S-6ST): 2.113
Direction (203426_s_at IGFBP5): up
Fold change (203426_s_at IGFBP5): 2.075
Direction (203518_at LYST): up
Fold change (203518_at LYST): 2.15
Direction (203740_at MPHOSPH6): up
Fold change (203740_at MPHOSPH6): 2.138
Direction (203853_s_at GAB2): up
Fold change (203853_s_at GAB2): 2.114
Direction (204115_at GNG11): up
Fold change (204115_at GNG11): 2.108
Direction (204396_s_at GRK5): up
Fold change (204396_s_at GRK5): 2.087
Direction (204420_at FOSL1): up
Fold change (204420_at FOSL1): 2.141
Direction (204456_s_at GAS1): up
Fold change (204456_s_at GAS1): 2.089
Direction (204742_s_at PDS5B): up
Fold change (204742_s_at PDS5B): 2.139
Direction (204790_at SMAD7): up
Fold change (204790_at SMAD7): 2.151
Direction (205110_s_at FGF13): up
Fold change (205110_s_at FGF13): 2.158
Direction (208415_x_at ING1): up
Fold change (208415_x_at ING1): 2.15
Direction (209436_at SPON1): up
Fold change (209436_at SPON1): 2.145
Direction (210145_at PLA2G4A): up
Fold change (210145_at PLA2G4A): 2.072
Direction (210355_at PTHLH): up
Fold change (210355_at PTHLH): 2.144
Direction [1]: up
Fold change [1]: 2.127
Direction (210519_s_at NQO1): up
Fold change (210519_s_at NQO1): 2.116
Direction (210665_at TFPI): up
Fold change (210665_at TFPI): 2.091
Direction (210841_s_at NRP2): up
Fold change (210841_s_at NRP2): 2.133
Direction (211725_s_at BID): up
Fold change (211725_s_at BID): 2.092
Direction (211981_at COL4A1): up
Fold change (211981_at COL4A1): 2.121
Direction (212298_at NRP1): up
Fold change (212298_at NRP1): 2.073
Direction (212554_at CAP2): up
Fold change (212554_at CAP2): 2.082
Direction (213032_at NFIB): up
Fold change (213032_at NFIB): 2.146
Direction (213033_s_at NFIB): up
Fold change (213033_s_at NFIB): 2.125
Direction (213093_at PRKCA): up
Fold change (213093_at PRKCA): 2.125
Direction (213790_at ADAM12): up
Fold change (213790_at ADAM12): 2.085
Direction (213994_s_at SPON1): up
Fold change (213994_s_at SPON1): 2.086
Direction (214014_at CDC42EP2): up
Fold change (214014_at CDC42EP2): 2.119
Direction (214211_at FTH1): up
Fold change (214211_at FTH1): 2.154
Direction (214913_at ADAMTS3): up
Fold change (214913_at ADAMTS3): 2.145
Direction (215012_at ZNF451): up
Fold change (215012_at ZNF451): 2.114
Direction (215785_s_at CYFIP2): up
Fold change (215785_s_at CYFIP2): 2.107

— patent US20120034613A1, “Apparatus and Method for Testing Relationships Between Gene Expression and Physical Appearance of Skin” (NSE Products, Inc., priority 2010, published 2012)
